Usually IC50 stands for the midpoint of a concentration-inhibition curve. Read a low IC50 as inhibition by little substance.

In one test the test system is MDA-MB-231. Briefly: Cancer cell growth inhibition (CellTiter-Glo), MDA-MB-231. Format: cell-based. The settings on record: Homo sapiens; Breast Cancer, MDA-MB-231, 72 h treatment. As to the method: (§1) Cell culture-based assays were used to evaluate the ability of compounds of the invention to inhibit cancer cell growth.
(§2) Cells were obtained from the American Type Culture Collection (ATCC). Cells were cultured at 37° C. with 5% CO2 in the appropriate growth medium (see table below), and harvested respectively during the logarithmic growth period and counted with hemocytometer. The cell viability was examined by trypan blue exclusion. Cell concentrations were adjusted to 5.56×10^4 cells/ml with respective medium.
(§3) Stock solutions of test compounds and positive drugs Doxorubicin (Zhejiang, Haizheng, China), Cisplatin (Nanjing Zhiyao, China) and Mitomycin (Zhejiang, Haizheng, China) were prepared in dimethyl sulphoxide (DMSO) or PBS at 20 mM.
(§4) In order to determine the IC50 for each compound, experiments were carried out in 96-well plates and the cell lines seeded at a density of 5,000 cells/well. […] All treatments were performed in triplicate. 10 μl of drug solution was added to each well and incubated for 72 hours. At the end of the incubation, 100 μl of the CellTiter-Glo Reagent were added to each well and the contents were mixed for 2 munites on an orbital shaker to induce cell lysis. The plate was incubated at room temperature for 10 minutes to stabilize luminiscent signal, and luminiscent was recorded. […] In order to calculate IC50 values, dose-responsive curves were fitted using nonlinear regression model with a sigmoidal dose response.
Background: Cellular ATP, detected with luciferase, serves as a proxy for viable cell number.

Another test deals with Calu-6. Briefly: Cancer cell growth inhibition (CellTiter-Glo), Calu-6. In kind it is cell-based, Human. The settings on record: Homo sapiens; Lung Cancer, Calu-6, 72 h treatment. As to the method:
as §1, §2, §3, §4

A further test concerns NCI-H1703. Briefly: Cancer cell growth inhibition (CellTiter-Glo), NCI-H1703. In kind it is cell-based, Human. The settings on record: Homo sapiens; Lung Cancer, NCI-H1703, 72 h treatment. As to the method:
as §1, §2, §3, §4

For the next test, the system named is MIAPaCa-2. Briefly: Cancer cell growth inhibition (CellTiter-Glo), MIAPaCa-2. In kind it is cell-based. The settings on record: Homo sapiens, MIA PaCa-2; Pancreatic Cancer, MIAPaCa-2, 72 h treatment. As to the method:
as §1, §2, §3, §4

The next test deals with Hep3B. Briefly: Cancer cell growth inhibition (CellTiter-Glo), Hep3B. In kind it is cell-based, Human. Particulars: Homo sapiens, Liver Cancer, 72 h treatment. As to the method: as §1, §2, §3, §4
A further test deals with HepG2. Briefly: Cancer cell growth inhibition (CellTiter-Glo), HepG2. Format: cell-based. The settings on record: Homo sapiens; Liver Cancer, HepG2, 72 h treatment. As to the method:
as §1, §2, §3, §4

Another test has as its system 143b. Briefly: Cancer cell growth inhibition (CellTiter-Glo), 143b. Particulars: Homo sapiens, Osteosarcoma, 72 h treatment. Format: cell-based. The procedure: as §1, §2, §3, §4
The next test deals with SK-MEL-5. The experiment in a line: Cancer cell growth inhibition (CellTiter-Glo), SK-MEL-5. In kind it is cell-based, Human. Particulars: Homo sapiens; Melanoma, SK-MEL-5, 72 h treatment. As to the method: as §1, §2, §3, §4
In a further test the test system is SK-OV-3. The experiment in a line: Cancer cell growth inhibition (CellTiter-Glo), SK-OV-3. In kind it is cell-based, Human. Particulars: Homo sapiens; Ovarian Cancer, SK-OV-3, 72 h treatment. As to the method: as §1, §2, §3, §4
Another test concerns K562. Briefly: Cancer cell growth inhibition (CellTiter-Glo), K562. Format: cell-based, Human. The settings on record: Homo sapiens; CML, K562, 72 h treatment. The procedure:
as §1, §2, §3, §4

Another test relates to RPMI-8226. Briefly: Cancer cell growth inhibition (CellTiter-Glo), RPMI-8226. The settings on record: Homo sapiens; Orthotopic Multiple Myeloma, RPMI-8226, 72 h treatment. In kind it is cell-based, Human. As to the method:
as §1, §2, §3, §4

Consider `O=C(CCCCCNC(=O)c1[nH]c(-c2ccccc2)cc1-c1ccc(O)cc1)NO` [Example 1, N-(6-(hydroxyamino)-6-oxohexyl)-3-(4-hydroxyphenyl)-5-phenyl-1H-pyrrole-2-carboxamide], for which the IC50 in the test on MDA-MB-231 was determined as 4.33 µM; in the test on Calu-6, 2.79 µM; with NCI-H1703, 3.26 µM; in the test on MIAPaCa-2, 2.75 µM; with Hep3B it was 1.61 µM; with HepG2, 1.1 µM. The IC50 in the test on 143b came to 1.71 µM; with SK-MEL-5, 1.28 µM; in the test with SK-OV-3, 3.16 µM; with K562 it was 1.02 µM; in the test on RPMI-8226 it was 0.7 µM.
Regarding `O=C(CCCCCNC(=O)c1[nH]c(-c2ccc(O)cc2)cc1-c1ccccc1)NO` [Example 2, N-(6-(hydroxyamino)-6-oxohexyl)-5-(4-hydroxyphenyl)-3-phenyl-1H-pyrrole-2-carboxamide], the IC50 in the test on MDA-MB-231 was found to be 9.03 µM; in the test with Calu-6, 4.22 µM; with NCI-H1703 it was 2.06 µM; with MIAPaCa-2 it was 4.08 µM; with Hep3B, 1.6 µM; in the test on HepG2, 0.99 µM. Moreover, the IC50 was determined as 5.38 µM in the test with 143b; 1.87 µM with SK-MEL-5; 6.88 µM in the test on SK-OV-3; 1.61 µM in the test on K562; 4.47 µM in the test on RPMI-8226.
Turning to `O=C(CCCCCNC(=O)c1[nH]c(-c2ccc(O)cc2)cc1-c1ccoc1)NO` [Example 5, 3-(3-furyl)-N-(5-(hydroxycarbamoyl)pentyl)-5-(4-hydroxy-phenyl)-1H-pyrrole-2-carboxamide], the IC50 in the test with MDA-MB-231 was 8.02 µM; in the test with Calu-6, 4.66 µM; with NCI-H1703, 1.64 µM; in the test on MIAPaCa-2, 1.59 µM; with Hep3B it was 1.01 µM; in the test with HepG2, 0.28 µM. The IC50 came out at 2.91 µM in the test with 143b; 0.82 µM in the test on SK-MEL-5; 1.56 µM in the test on SK-OV-3; 1.75 µM with K562; 6.2 µM in the test on RPMI-8226.
As to `O=C(CCCCCNC(=O)c1[nH]c(-c2ccc(O)cc2)cc1-c1ccsc1)NO` [Example 6, N-(5-(hydroxycarbamoyl)pentyl)-5-(4-hydroxyphenyl)-3-(3-thienyl)-1H-pyrrole-2-carboxamide], the IC50 in the test on MDA-MB-231 worked out at 7.89 µM; in the test on Calu-6 it was 3.46 µM; in the test on NCI-H1703, 1.83 µM; in the test with MIAPaCa-2, 2.49 µM; with Hep3B, 0.89 µM; in the test with HepG2, 0.48 µM. Moreover, the IC50 in the test with 143b amounted to 2.72 µM; in the test on SK-MEL-5, 1.02 µM; with SK-OV-3, 3.15 µM; with K562 it was 1.35 µM; in the test on RPMI-8226, 4.8 µM.
